The term Emax denotes the maximal effect, on the per cent scale that the assay sets. By EC50 is commonly meant the midpoint of the concentration-response curve.

The test addresses T1, human mAChR M4 (Homo sapiens, UniProt P08173).
T1 construct: expressed in transfected cells
T1 sequence (P08173 1-479): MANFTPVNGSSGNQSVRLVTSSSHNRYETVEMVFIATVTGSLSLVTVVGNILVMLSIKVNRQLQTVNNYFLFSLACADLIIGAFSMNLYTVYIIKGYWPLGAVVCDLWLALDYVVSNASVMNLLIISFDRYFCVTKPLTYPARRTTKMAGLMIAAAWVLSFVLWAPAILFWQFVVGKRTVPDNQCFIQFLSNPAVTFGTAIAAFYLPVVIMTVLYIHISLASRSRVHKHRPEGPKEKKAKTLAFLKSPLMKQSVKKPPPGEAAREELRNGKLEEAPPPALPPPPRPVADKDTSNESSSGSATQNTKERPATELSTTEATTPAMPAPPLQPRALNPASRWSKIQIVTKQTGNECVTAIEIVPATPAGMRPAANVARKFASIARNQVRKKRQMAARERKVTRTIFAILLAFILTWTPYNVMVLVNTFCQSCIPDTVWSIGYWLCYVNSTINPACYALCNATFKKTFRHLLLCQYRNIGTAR
As to the kind of experiment: mAChR M4 cell-based functional assay (calcium mobilization, CHO-K1 hM4-Gqi5 cells). The following applies: for Emax at 30 µM: CHO-K1, % ACh maximum at 30 μM, human M4; for EC50: positive allosteric modulator activity, increase in the EC20 acetylcholine response, CHO-K1 hM4-Gqi5 cells, read-out: Human M4 EC50; for Emax: CHO-K1. Put shortly: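 CHO-K1 cells stably expressing human M4 with chimeric Gqi5, loaded with Fluo-4 AM; compounds given as 11-point 1:3 curves and calcium flux read on FDSS at 1 Hz. Acetylcholine EC20 added at 144 s, EC80 at 230 s; agonist, PAM (EC20 potentiation) and antagonist (EC80 inhibition) EC50/Emax from four-parameter fits.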
In general terms: A change in cytosolic calcium serves as a functional read-out for many receptors and channels.

As to `Cc1c(Cl)nc(C(F)(F)F)nc1N1CCc2ncc(Nc3cccnc3F)cc2C1` [compound 249, 6-(6-chloro-5-methyl-2-(trifluoromethyl)pyrimidin-4-yl)-N-(2-fluoropyridin-3-yl)-5,6,7,8-tetrahydro-1,6-naphthyridin-3-amine], the Emax at 30 µM is 82% and the EC50 was found to be 1440 nM.
The matching figures for `Cc1cc(C#N)cnc1N1CCc2ncc(-c3ccc(N(C)C)nc3)cc2C1` [Example 318, 6-(3-(6-(dimethylamino)pyridin-3-yl)-7,8-dihydro-1,6-naphthyridin-6(5H)-yl)-5-methylnicotinonitrile]: 74% and 470 nM.
In the case of `Cc1nc(Cl)c(C)c(N2Cc3cc(-c4cn(C)nc4C)cnc3C(C)(C)C2)n1` [compound 238, 6-(6-chloro-2,5-dimethylpyrimidin-4-yl)-3-(1,3-dimethyl-1H-pyrazol-4-yl)-8,8-dimethyl-5,6,7,8-tetrahydro-1,6-naphthyridine], the Emax at 30 µM came out at 36% and the EC50 was 819 nM.
Regarding `Fc1ncccc1Nc1cnc2c(c1)CN(c1nc(Cl)nc3c1COC3)CC2` [compound 289, 6-(2-chloro-5,7-dihydrofuro[3,4-d]pyrimidin-4-yl)-N-(2-fluoropyridin-3-yl)-5,6,7,8-tetrahydro-1,6-naphthyridin-3-amine], the EC50 came to 918 nM.
Turning to `Cc1cc(C(=O)NC23CC(F)(C2)C3)cnc1N1CCc2ncccc2C1` [compound 124, 6-(7,8-dihydro-5H-1,6-naphthyridin-6-yl)-N-(3-fluoro-1-bicyclo[1.1.1]pentanyl)-5-methyl-pyridine-3-carboxamide], the Emax at 30 µM came out at 78% and the EC50 worked out at 2170 nM.
Turning to `Cc1cc(C#N)cnc1N1CCc2ncc(N3CCN(C)C(=O)C3)cc2C1` [Example 409, 5-methyl-6-(3-(4-methyl-3-oxopiperazin-1-yl)-7,8-dihydro-1,6-naphthyridin-6(5H)-yl)nicotinonitrile], the Emax at 30 µM was determined as 96% and the EC50 was 1100 nM.
In the same order, the values of `Cc1c(C#N)nnc(N2Cc3cc(C(F)(F)F)cnc3CC2C)c1C` (stereo not shown) [Example 367, 4,5-dimethyl-6-(7-methyl-3-(trifluoromethyl)-7,8-dihydro-1,6-naphthyridin-6(5H)-yl)pyridazine-3-carbonitrile] are 89% and 209 nM.
In the same order, the values of `Cc1cc(C(=O)NCc2ccc(N3CCOCC3)nc2)cnc1N1CCc2ncc(-c3cn(C)nc3C)cc2C1` [Example 480, 6-(3-(1,3-dimethyl-1H-pyrazol-4-yl)-7,8-dihydro-1,6-naphthyridin-6(5H)-yl)-5-methyl-N-((6-morpholinopyridin-3-yl)methyl)nicotinamide] are 76% and 1390 nM.
As for `Cc1c(C#N)nnc(N2CCc3ncc(-c4cnn(CC(C)(C)O)c4)cc3C2)c1C` [Example 327, 6-(3-(1-(2-hydroxy-2-methylpropyl)-1H-pyrazol-4-yl)-7,8-dihydro-1,6-naphthyridin-6(5H)-yl)-4,5-dimethylpyridazine-3-carbonitrile], the Emax at 30 µM stood at 68% and the EC50 was 1910 nM.
`Cc1cc(C#N)cnc1N1CCc2ncc(C(F)F)cc2C1` [Example 307, 6-(3-(difluoromethyl)-7,8-dihydro-1,6-naphthyridin-6(5H)-yl)-5-methylnicotinonitrile]: the maximal effect (Emax) was 100% and the EC50 was determined as 162 nM.
With `Cc1cc(C(=O)NCc2ccc3ncnn3c2)cnc1N1CCc2ncccc2C1` [compound 151, 6-(7,8-dihydro-5H-1,6-naphthyridin-6-yl)-5-methyl-N-([1,2,4]triazolo[1,5-a]pyridin-6-ylmethyl)pyridine-3-carboxamide], the Emax at 30 µM is 67% and the concentration giving a half-maximal response (EC50) is 3250 nM.
With `Cc1cc(C#N)cnc1N1CCc2ncc(N3CCCn4nc(C(F)(F)F)cc43)cc2C1` [Example 412, 5-methyl-6-(3-(2-(trifluoromethyl)-6,7-dihydropyrazolo[1,5-a]pyrimidin-4(5H)-yl)-7,8-dihydro-1,6-naphthyridin-6(5H)-yl)nicotinonitrile], the Emax at 30 µM turned out to be 62% and the EC50 worked out at 306 nM.
Consider `Cc1nc(Cl)c(C)c(N2Cc3cc(N)cnc3C(C)C2)n1` (stereo not shown) [compound 255, 6-(6-chloro-2,5-dimethylpyrimidin-4-yl)-8-methyl-5,6,7,8-tetrahydro-1,6-naphthyridin-3-amine], for which the Emax came out at 88% and the EC50 is 2100 nM.
Take `Cc1ccc2c(n1)CCN(c1nnc(C#N)cc1C)C2` [Example 605, 5-methyl-6-(2-methyl-7,8-dihydro-1,6-naphthyridin-6(5H)-yl)pyridazine-3-carbonitrile]: the maximal response (Emax) turned out to be 106% and the EC50 is 1440 nM.
`Cc1cc(C(=O)NCC2CCOCC2)cnc1N1CCc2ncccc2C1` [compound 160, 6-(7,8-dihydro-5H-1,6-naphthyridin-6-yl)-5-methyl-N-(tetrahydropyran-4-ylmethyl)pyridine-3-carboxamide]: the Emax at 30 µM is 51% and the EC50 is no less than 10000 nM.
With `Clc1nc2c(c(N3CCc4ncc(C5CC5)cc4C3)n1)COC2` [compound 287, 2-chloro-4-(3-cyclopropyl-7,8-dihydro-1,6-naphthyridin-6(5H)-yl)-5,7-dihydrofuro[3,4-d]pyrimidine], the half-maximal effective concentration (EC50) came out at 584 nM.
In the case of `COC(=O)c1cnc(N2CCc3ncc(Br)cc3C2)c(C)c1` [compound 133, methyl 6-(3-bromo-7,8-dihydro-5H-1,6-naphthyridin-6-yl)-5-methyl-pyridine-3-carboxylate], the Emax came to 100% and the concentration for a half-maximal effect (EC50) is 158 nM.
Turning to `Cc1cc(C#N)cnc1N1CCc2ncc(C3CCC3)cc2C1` [Example 403, 6-(3-cyclobutyl-7,8-dihydro-1,6-naphthyridin-6(5H)-yl)-5-methylnicotinonitrile], the Emax at 30 µM amounted to 91% and the EC50 is 84 nM.
For the molecule `[2H]C1([2H])Cc2ncc(Nc3cccnc3C)cc2C([2H])([2H])N1c1nnc(C#N)cc1C` [Example 604, 5-methyl-6-(3-((2-methylpyridin-3-yl)amino)-7,8-dihydro-1,6-naphthyridin-6(5H)-yl-5,5,7,7-d4)pyridazine-3-carbonitrile], the Emax at 30 µM was 83% and the EC50 stood at 158 nM.
Take `Cc1nc(C)c(C)c(N2CCc3ncc(N4CCCn5nccc54)cc3C2)n1` [compound 244, 3-(6,7-dihydropyrazolo[1,5-a]pyrimidin-4(5H)-yl)-6-(2,5,6-trimethylpyrimidin-4-yl)-5,6,7,8-tetrahydro-1,6-naphthyridine]: the Emax at 30 µM came out at 99% and the EC50 turned out to be 25 nM.
`[2H]C1([2H])Cc2ncc(Nc3ccncc3F)cc2C([2H])([2H])N1c1nnc(C#N)cc1C` [Example 606, 6-(3-((3-fluoropyridin-4-yl)amino)-7,8-dihydro-1,6-naphthyridin-6(5H)-yl-5,5,7,7-d4)-5-methylpyridazine-3-carbonitrile]: the maximal response (Emax) at 30 µM was 90% and the concentration giving a half-maximal response (EC50) is 10 nM.
In the case of `Cc1cc(C#N)cnc1N1CCc2ncc(-c3cccc(F)n3)cc2C1` [compound 168, 6-[3-(6-fluoro-2-pyridyl)-7,8-dihydro-5H-1,6-naphthyridin-6-yl]-5-methyl-pyridine-3-carbonitrile], the Emax at 30 µM amounted to 91% and the EC50 was found to be 420 nM.
Take `Cc1nc(Cl)c(C)c(N2CCc3ncc(-c4cn(C)nc4C)cc3C2)n1` [compound 192, 6-(6-chloro-2,5-dimethyl-pyrimidin-4-yl)-3-(1,3-dimethylpyrazol-4-yl)-7,8-dihydro-5H-1,6-naphthyridine]: the Emax at 30 µM was 90% and the EC50 is 169 nM.
For the molecule `Cc1c(C#N)nnc(N2CCc3ncc(Nc4ccccc4C#N)cc3C2)c1C` [compound 41, 6-[3-(2-cyanoanilino)-7,8-dihydro-5H-1,6-naphthyridin-6-yl]-4,5-dimethyl-pyridazine-3-carbonitrile], the maximal effect (Emax) at 30 µM turned out to be 46% and the EC50 was 483 nM.
`Cc1nc(Cl)c(C)c(N2CCc3ncc(Oc4cccnc4)cc3C2)n1` [compound 207, 6-(6-chloro-2,5-dimethyl-pyrimidin-4-yl)-3-(3-pyridyloxy)-7,8-dihydro-5H-1,6-naphthyridine]: the maximal response (Emax) at 30 µM came to 86% and the EC50 was 370 nM.
With `Cc1cc(C(=O)NCc2csc3ccccc23)cnc1N1CCc2ncc(C(F)(F)F)cc2C1` [Example 447, N-(benzo[b]thiophen-3-ylmethyl)-5-methyl-6-(3-(trifluoromethyl)-7,8-dihydro-1,6-naphthyridin-6(5H)-yl)nicotinamide], the Emax at 30 µM stood at 97% and the EC50 is 1640 nM.
Turning to `Cc1cc(C(=O)NCC(C)C)cnc1N1CCc2ncc(-c3cn(C)nc3C)cc2C1` [Example 460, 6-(3-(1,3-dimethyl-1H-pyrazol-4-yl)-7,8-dihydro-1,6-naphthyridin-6(5H)-yl)-N-isobutyl-5-methylnicotinamide], the Emax at 30 µM amounted to 71% and the EC50 is 1830 nM.

The values are drawn from patent US20250230155A1 (Vanderbilt University, priority 2021, published 2025).
